row,Compound,melting point
1,CO[C@H]1CC[C@H]([C@H]2CC[C@H](CCC3OCCO3)CC2)CC1,74 °C
2,C=CCn1c(Br)c(C[C@H](NC(C)=O)C(=O)OC)c2c(Br)c(OC)c(Br)cc21,191 to 192 °C
3,Nc1ccccc1COc1ccn(-c2ccc(Cl)cc2)n1,81 to 83 °C
4,COc1c(NC2CCC(=Cc3ccccc3)CC2)ccnc1C (stereo unspecified),120 °C
5,O=C1O[C@@H](CO)CN1c1ccc(-n2ccnn2)c(F)c1,179 to 180 °C
6,CCOC(=O)C1=C(COCCN2CCN(c3nc(N)n(C)n3)CC2)NC(C)=C(C(=O)OC)C1c1ccccc1Cl (stereo unspecified),92 to 96 °C
7,COc1ccc(-c2nc(-c3ccccc3Cl)sc2-c2ccc(S(C)(=O)=O)cc2)cc1,172 to 174 °C
8,COc1cc2c(Nc3ccc(Sc4ccccn4)cc3)c(C#N)cnc2cc1N1CCC(N2CCCC2)CC1,182 to 184 °C
9,O=c1[nH]c2sccc2c2c([N+](=O)[O-])cccc12,255 to 258 °C
10,Nc1ccc(Oc2ccccc2Oc2ccc(N)c(O)c2)cc1O,> 180 °C
11,CC(=O)c1c2c(cc3c1CCC3)CCC2,69.1 to 76.1 °C
12,CS(=O)(=O)c1ccc(-c2cnn(-c3ccc(C#N)cc3)c(=O)c2-c2ccc(F)cc2)cc1,273 to 278 °C
13,CC(=O)c1ccc(OCCOc2ccc3ccccc3c2)cc1F,144 to 146 °C
14,Clc1ccc2c(c1)Cc1ccccc1CN2,137 to 141 °C
15,CC1(C)Oc2ccc3nc(Cl)ccc3c2C(NCCc2ccccc2)C1O (stereo unspecified),141 to 143 °C
16,CNC1C=CC(C(C)C)C2CNCC12 (stereo unspecified),76 to 81 °C
17,N#Cc1c(N)cccc1[N+](=O)[O-],196 to 198 °C
18,O=C(O)CCn1cnc2c(Cl)ncnc21,163 to 165 °C
19,Oc1ccc(-c2nnc(CSCCOc3ccccc3)n2-c2ccccc2)cc1,214 to 216 °C
20,CSc1cc2ccc(-c3ccccc3)cc2cc1OS(=O)(=O)C(F)(F)F,87.8 to 88.7 °C
21,CCNC(=O)c1c(Cl)cc(C(C)(C)C)cc1[Si](C)(C)C,124 to 126 °C
22,O=C(O)C(Oc1ccc(F)c(C(F)(F)F)c1)c1ccc(Cl)cc1 (stereo unspecified),106 °C
23,CC(=O)Nc1cc(Oc2ccc3c(C(=O)Nc4ccc(CN5CCN(C(C)C)CC5)c(C(F)(F)F)c4)cccc3c2)ncn1,210 to 213 °C
24,CC(C)(C)c1cc(CCCCCCc2cc(C(C)(C)C)c(O)c(C(C)(C)C)c2)cc(C(C)(C)C)c1O,147 to 149 °C
25,COc1ccc(Oc2cccc(C(=O)O)c2)cc1,141 to 143 °C
26,Cc1nc2cc(OCc3ccccc3)c(OCc3ccccc3)cc2nc1C(=O)O,198 to 200 °C

row,Compound,melting point
1,Cc1c(C=O)nc(-c2ccc(C(F)(F)F)cc2)n1C,144 °C
2,O=C(NCCN1CCCCC1)c1ccc(-c2ccc3nnn(Cc4ccc5ncccc5c4)c3n2)cc1,104 to 107 °C
3,CCOC(=O)c1cccc(Nc2ncc3cc(-c4c(Cl)cccc4Cl)c(=O)n(C)c3n2)c1,238 to 240 °C
4,COc1cc(NC(=O)OC(C)(C)C)c([N+](=O)[O-])cc1C#Cc1ccccc1,129 °C
5,Cn1ncc(/C=C\C(=O)O)c1-c1ccc(F)cc1,205 to 206 °C
6,CC(=O)N1OCC(=O)N(CCl)C1c1ccccc1 (stereo unspecified),171 to 172 °C
7,O=c1ccoc2cccc(OCCCN3CCN(c4ccccc4)CC3)c12,106 to 112 °C
8,CN1CCC(=C2c3cc(Cl)ccc3CCn3ncnc32)CC1,176 °C
9,CC(=O)NCC(=O)Nn1cccc1C(=O)c1ccccc1F,146 to 147 °C
10,CC(=O)c1cc2c(s1)SCCN(CCCCCl)C2=O,132 to 134 °C
11,Cc1cc(C2=NN=C(C(=O)O)Cc3cc4c(cc32)OCO4)ccc1[N+](=O)[O-],185 to 186 °C
12,COC(=O)c1ccc(OC)c2oc(C)cc12,127 to 129 °C
13,Cc1cccc(Sc2ccc3c(c2)CC[C@H]2NC(=O)CC[C@]32C)c1,189 to 191 °C
14,CC(C)(C)CNc1nc(N2CCCC2)cc(N2CCNCC2)n1,118 to 120 °C
15,O=C(O)Cn1c(=O)n(Cc2ccc(Cl)c(Cl)c2)c(=O)c2ccccc21,225 to 227 °C
16,N#CC1(c2ccccc2)CCC(O)CC1 (stereo unspecified),103 to 111 °C
17,Cc1cc([N+](=O)[O-])c2[nH]ccc(=O)c2c1,209 to 212 °C
18,CC1SC(c2cccnc2)N(C2CCCCC2)C1=O (stereo unspecified),120 to 125 °C
19,CC(C)n1c(=O)ccc2cnc(Nc3cccc([N+](=O)[O-])c3)nc21,202 to 203 °C
20,c1ccc(OCNc2ccncc2)cc1,159 to 160 °C
21,Cc1ccccc1N1CC(=O)N(C)C(=O)N1,147 to 148 °C
22,COc1cc2c(cc1OC)CN(CCCOc1ccc(NC(=O)c3nc4cc(C)c(C)cc4nc3OC)cc1)CC2,158 °C
23,Cc1ccc(Cl)cc1-c1noc(CCC#Cc2ccccn2)n1,66 to 68 °C
24,N#Cc1cc2c3c(cccc3c1N1CCCCC1)C(=O)N(O)C2=O,> 250 °C
25,COc1ccc(C(=O)Nc2ccc3sc(C)nc3c2Cl)cc1,182 °C
26,O=C(Nc1cccc2c(=O)cc(C(=O)O)oc12)c1ccc2c(c1)CC(CCCc1ccccc1)O2 (stereo unspecified),184 to 185 °C

row,Compound,melting point
1,Cc1cc(C)cc(-c2cnn3c(-c4cccc(NC(=O)CC(C)C)c4)ccnc23)c1,178 to 180 °C
2,O=C(O)C(=O)c1ccc(OCCc2ccccc2)cc1,72 to 73 °C
3,CC(C)(C)N1CC(COc2cccc3c(S)nccc23)OC1=O (stereo unspecified),264 to 269 °C
4,CCOC(=O)C(=CNc1ccc(OC)c(C)n1)C(=O)OCC,109 to 110 °C
5,COc1ccc(C)cc1NC(=O)Nc1ccc2c(c1)CCN(C(=O)Oc1ccc(C(=O)O)cc1Cl)C2,196 to 198 °C
6,CNC(=O)N(O)CCCNC(=O)c1cccc(Oc2ccccc2)c1,175 to 177 °C
7,CS(=O)c1ccc(CSc2nnc(-c3ccc4ncsc4c3)o2)cc1C(F)(F)F (stereo unspecified),179 to 180 °C
8,COc1ccc2cc(C3CCN(C[C@H](O)COc4cccc5oc(C6=NC(C)(C)CO6)cc45)CC3)ccc2c1,133 to 134 °C
9,Cc1ccccc1NC(=O)CN1CC2CCC(C1)N2S(=O)(=O)c1ccccc1Cl,170 to 171 °C
10,O=C(CCc1nnc(-c2ccc3c(c2)CCO3)o1)c1cccs1,151 to 152 °C
11,CCNC(=O)c1c([Si](C)(C)C)ccc(SC)c1Cl,137 to 139 °C
12,O=C1C(=Cc2ccc(-c3cccs3)s2)CCc2cc(OCCn3ccnc3)ccc21,180 to 181 °C
13,CC(C)CNC(=O)N(CCCl)N=O,51 °C
14,COC(=O)c1nc(N)sc1-c1ccc(SC)cc1,184 to 185 °C
15,C=CCn1[nH]c2cc(OC)ccc2c1=O,126 °C
16,COc1cc(O)c2c(c1C)C(=O)SCC(=O)N[C@@H](c1nc(C)no1)COC2,194 to 196 °C
17,Nc1cc(Oc2ccc(NC(=O)Nc3ccc(-c4ccncc4)c(C(F)(F)F)c3)cc2)ncn1,131 to 135 °C
18,CC1Cc2cc3c(cc2C(c2ccc([N+](=O)[O-])cc2)=NN1c1nnns1)OCO3 (stereo unspecified),109 to 110 °C
19,O=C(O)c1cnc(Nc2cccc(C(F)(F)F)c2)[nH]c1=O,252 to 254 °C
20,CC(=O)NCCn1ccc(=O)c(OCc2ccccc2)c1C(O)c1ccccc1 (stereo unspecified),180 to 182 °C
21,O=C(O)C1=Cc2cccc(-c3ccccc3)c2OC1C(F)(F)F (stereo unspecified),172 to 175 °C
22,Cc1c(N)c(C(C)C)cc(Cc2cc(C(C)C)c(N)c(C)c2Cl)c1Cl,118 to 120 °C
23,CS(=O)(=O)Nc1ccc(/C=C\COCCCCCCNCC(O)c2cc(O)cc(O)c2)cc1 (stereo unspecified),79 to 82 °C
24,CCOC(=O)c1ccc(OCCCCc2cc(C)no2)cc1,61 °C
25,CN(C)C=C(C(=O)c1ccc(Cl)cc1)c1ccccc1[N+](=O)[O-],142 to 148 °C
26,[N-]=[N+]=NCc1nc2ccccc2n1Cc1ccc(Cl)c(Cl)c1,78 to 80 °C

row,Compound,melting point
1,Cc1ccc(F)c(NS(=O)(=O)c2n[nH]c(NC=O)n2)c1F,270 to 273 °C
2,Cc1cc(-c2ccc(C(=O)O)cc2)ccn1,293 to 294 °C
3,O=C(NC1CCC(c2cc(Nc3cccc(C(F)(F)F)c3)n[nH]2)C1)C1CCC1 (stereo unspecified),232 °C
4,COc1cc(N)c(Cl)cc1C(=O)NCC1CCN(CCS(=O)(=O)CCc2ccccc2)CC1,161 to 162 °C
5,CCCCCCCCCCCCCCCCCC(=O)c1ccc(OC)c(C(=O)OC)c1,73 to 74 °C
6,CCOC(=O)c1ccn(-c2ccc(OC(F)(F)F)cc2)n1,76 to 78 °C
7,O=C(O)C(=O)CC(=O)c1cccn1Cc1cccc(Cl)c1,159 to 161 °C
8,O=[N+]([O-])c1cc(Cl)ccc1/C=C/c1ccc(Cl)cc1[N+](=O)[O-],247 to 248 °C
9,Cc1ccc(NC(=O)Nc2ccc(-c3c(Cc4cccnc4)sc4ncnc(N)c34)cc2)cc1,220 to 223 °C
10,COc1ccc2ccc(N3C(=O)c4ccccc4C3CC(=O)CCN(C)C)nc2n1 (stereo unspecified),140 °C
11,COc1ccc(C=O)cc1C(C)(C)C,52 °C
12,CC(C)NC(=O)N1c2ccc(S(=O)(=O)n3cc(-c4ccccc4)[nH]c3=O)cc2CC1C (stereo unspecified),154 to 156 °C
13,Fc1ccc(Cn2c(OC3CCNCC3)nc3cncnc32)cc1,79.3 °C
14,CC(C)C[C@H](NC(=O)OC(C)(C)C)C(=O)NCCCC(c1ccc(F)cc1)c1ccc(F)cc1,50 to 55 °C
15,COC(=O)C1=C(CF)NC(C)=C(C(=O)OC(C)C)C1c1ccccc1C(F)(F)F (stereo unspecified),71 to 72 °C
16,CC(=O)N(C)c1cccc(-c2ccnc3c(C#N)cnn23)c1,195 to 197 °C
17,CSCC[C@H](N)C(=O)NC(=O)C(CSC(C)=O)Cc1ccccc1 (stereo partly specified),119 to 121 °C
18,OC(c1cccnc1)c1cc(F)ccc1F (stereo unspecified),79 to 80 °C
19,CCN(CC)c1ccc(-c2cc(-c3ccc(C(=O)O)cc3)ccc2CCCNC2CC2)cc1C(C)(C)C,189 °C
20,CS(=O)(=O)NC(=O)CCCCOc1cccc(O)c1C=O,136 to 138 °C
21,O=C1CC(C(=O)NC(Cc2c[nH]cn2)C(=O)OCc2ccccc2)N1 (stereo unspecified),196 to 199 °C
22,COc1c(Cl)ccc(-c2cc(N)c(Cl)c(C(=O)NOCCC#N)n2)c1F,191 to 194 °C
23,CCOC(=O)c1cc(C(=O)c2cccc(S(=O)(=O)F)c2)sc1N,168 to 170 °C

# Source: a melting point compilation (Tetko et al.; mined from patent text by program, amines drawn as free bases though some values may be those of a salt)
